How the values were obtained:
[1] = xn = mol fraction of the nth substance listed; conditions: 101 kPa, Liquid
[2] = refractive index (Na D-line) (dimensionless); xn = mol fraction of the nth substance listed; conditions: 101 kPa, Liquid

CCCCCCCC[n+]1ccn(C)c1.F[P-](F)(F)(F)(F)F [1-octyl-3-methylimidazolium hexafluorophosphate] + CCC(C)=O
Conditions	mass density, 293.15 K [kg/m3]	mass density, 298.15 K [kg/m3]	mass density, 303.15 K [kg/m3]	refractive index, 293.15 K	refractive index, 298.15 K	refractive index, 303.15 K	speed of sound, 293.15 K [m/s]	speed of sound, 298.15 K [m/s]	speed of sound, 303.15 K [m/s]
[1], x1 = 0.0475	869.8	864.3	859.6	–	–	–	1243	1224	1195
[1], x1 = 0.0972	923.7	918.9	914.1	–	–	–	1268	1249	1229
[1], x1 = 0.1918	1002	997.6	993.2	–	–	–	1303	1286	1269
[1], x1 = 0.2947	1063.1	1058.8	1054.6	–	–	–	1331	1315	1300
[1], x1 = 0.3949	1107.9	1103.7	1099.5	–	–	–	1352	1337	1323
[1], x1 = 0.4983	1143.6	1139.4	1135.3	–	–	–	1368	1354	1340
[1], x1 = 0.5752	1164.9	1160.9	1156.9	–	–	–	1378	1364	1351
[1], x1 = 0.6815	1189.5	1185.5	1181.5	–	–	–	1389	1376	1363
[1], x1 = 0.7683	1205.8	1202	1198.3	–	–	–	1399	1386	1372
[1], x1 = 0.8315	1216.4	1212.8	1209.1	–	–	–	1406	1392	1379
[1], x1 = 0.9315	1230.9	1227.5	1223.9	–	–	–	1425	1410	1395
[1], x1 = 1	1239.6	1235.7	1231.9	–	–	–	1424	1408	1393
[2], x1 = 0.0475	–	–	–	1.38881	1.38663	1.38505	–	–	–
[2], x1 = 0.0972	–	–	–	1.39567	1.39445	1.39284	–	–	–
[2], x1 = 0.1918	–	–	–	1.40468	1.40289	1.40124	–	–	–
[2], x1 = 0.2947	–	–	–	1.41058	1.40877	1.40709	–	–	–
[2], x1 = 0.3949	–	–	–	1.41468	1.41302	1.41133	–	–	–
[2], x1 = 0.4983	–	–	–	1.41774	1.41614	1.41466	–	–	–
[2], x1 = 0.5752	–	–	–	1.41934	1.41779	1.41645	–	–	–
[2], x1 = 0.6815	–	–	–	1.42126	1.41979	1.41825	–	–	–
[2], x1 = 0.7683	–	–	–	1.42239	1.42095	1.41949	–	–	–
[2], x1 = 0.8315	–	–	–	1.42355	1.42198	1.42051	–	–	–
[2], x1 = 0.9315	–	–	–	1.42474	1.42337	1.42199	–	–	–
[2], x1 = 1	–	–	–	1.4244	1.42302	1.42165	–	–	–

C1CCCCC1 [cyclohexane] + CCC(C)=O
x1 = 1
Conditions	refractive index, 293.15 K	refractive index, 298.15 K	refractive index, 303.15 K	speed of sound, 293.15 K [m/s]	speed of sound, 298.15 K [m/s]	speed of sound, 303.15 K [m/s]
[1], Sing-around technique in a fixed-path interferometer	–	–	–	1279	1256	1219
[2], Standard Abbe refractometry	1.42633	1.42354	1.42073	–	–	–

[1], x1 = 1
Conditions	mass density [kg/m3]
293.15 K	778.4
298.15 K	773.8
303.15 K	769

CCC(C)=O [butanone] + CCCCCCCC[n+]1ccn(C)c1.F[P-](F)(F)(F)(F)F
x2 = 0
Conditions	mass density, 293.15 K [kg/m3]	mass density, 298.15 K [kg/m3]	mass density, 303.15 K [kg/m3]	refractive index, 293.15 K	refractive index, 298.15 K	refractive index, 303.15 K	speed of sound, 293.15 K [m/s]	speed of sound, 298.15 K [m/s]	speed of sound, 303.15 K [m/s]
[1]	805.6	799.7	794.9	–	–	–	1212	1192	1163
[2]	–	–	–	1.37879	1.37618	1.37355	–	–	–

— the NIST ThermoML archive (doi:10.1016/j.jct.2008.03.011)
